Read-outs that look alike come from different tables or passages of the source.
Columns and labels:
Format in all cases: biochemical
TEC = target: T1, TEC (Homo sapiens, UniProt P42680); assay: Inhibition of a panel of kinases (in vitro HotSpot kinase assay, 33P-ATP, 1 μM ATP); settings: for IC50: HotSpot kinase assay, 1 μM ATP; for TEC/Btk: ratio of TEC IC50 to Btk IC50 (selectivity)
T1 sequence (P42680 1-631): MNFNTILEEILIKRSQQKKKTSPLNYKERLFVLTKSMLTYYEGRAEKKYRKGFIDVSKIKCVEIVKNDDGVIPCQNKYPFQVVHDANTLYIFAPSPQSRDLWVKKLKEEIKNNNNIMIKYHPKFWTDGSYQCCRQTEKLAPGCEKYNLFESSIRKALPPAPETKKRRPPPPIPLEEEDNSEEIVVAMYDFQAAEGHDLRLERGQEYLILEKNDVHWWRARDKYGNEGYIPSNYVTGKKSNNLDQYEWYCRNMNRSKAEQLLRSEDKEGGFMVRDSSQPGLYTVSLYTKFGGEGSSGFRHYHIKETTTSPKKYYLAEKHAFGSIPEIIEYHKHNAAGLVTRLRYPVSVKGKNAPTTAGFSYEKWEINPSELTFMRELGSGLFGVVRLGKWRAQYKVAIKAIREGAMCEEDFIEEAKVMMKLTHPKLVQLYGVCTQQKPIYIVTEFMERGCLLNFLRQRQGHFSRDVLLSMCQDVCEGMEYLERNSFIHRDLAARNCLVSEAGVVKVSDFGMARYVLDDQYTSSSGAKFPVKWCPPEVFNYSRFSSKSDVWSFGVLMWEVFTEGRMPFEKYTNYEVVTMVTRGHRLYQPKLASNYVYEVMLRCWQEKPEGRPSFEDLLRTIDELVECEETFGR
In short: (§1)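 Degree of kinase inhibition is determined in vitro using isolated enzymes, a matched substrate and radiolabelled ATP (1 μM).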

panel of kinases = target: T2, panel of kinases (Homo sapiens, UniProt P51813); assay: Inhibition of a panel of kinases (in vitro HotSpot kinase assay, 33P-ATP, 1 μM ATP), other kinases; settings: BMX wild-type, read-out: BMX-WT IC50
T2 sequence (P51813 1-675): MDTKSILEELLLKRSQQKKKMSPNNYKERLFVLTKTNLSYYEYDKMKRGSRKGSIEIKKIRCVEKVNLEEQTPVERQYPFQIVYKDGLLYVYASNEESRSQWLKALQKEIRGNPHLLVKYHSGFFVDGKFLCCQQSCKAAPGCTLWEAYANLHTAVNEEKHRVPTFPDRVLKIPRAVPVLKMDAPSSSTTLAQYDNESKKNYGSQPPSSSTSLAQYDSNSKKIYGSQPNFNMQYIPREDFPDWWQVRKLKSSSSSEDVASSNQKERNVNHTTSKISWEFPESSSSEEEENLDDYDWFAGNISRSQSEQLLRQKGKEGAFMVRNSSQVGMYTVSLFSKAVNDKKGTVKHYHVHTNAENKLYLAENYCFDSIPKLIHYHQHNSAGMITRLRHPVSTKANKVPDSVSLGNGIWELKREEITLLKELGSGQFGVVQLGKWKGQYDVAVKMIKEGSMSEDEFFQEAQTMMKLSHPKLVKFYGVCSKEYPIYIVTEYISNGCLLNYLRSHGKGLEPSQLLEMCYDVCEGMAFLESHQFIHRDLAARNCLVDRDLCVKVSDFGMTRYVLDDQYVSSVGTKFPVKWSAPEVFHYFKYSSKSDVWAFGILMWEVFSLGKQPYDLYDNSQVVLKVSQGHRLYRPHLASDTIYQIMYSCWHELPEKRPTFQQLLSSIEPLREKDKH
In short: as §1

Btk = target: T3, Btk (Homo sapiens, UniProt Q06187); assay: Btk in vitro inhibitory activity (one of Method A TR-FRET, Method B electrophoretic mobility shift, Method C radiometric filter binding)
T3 construct: purified from insect cells as a full-length construct containing a N-terminal 6X-His tag; His6 (N); made in house; host or cells: insect cells (Method C)
In short: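 Method A: TR-FRET with 0.5 nM Btk at [ATP]=Km, EDTA-quenched, 665/615 nm ratio; Ki(app) converted to IC50. Method B: 1 nM full-length His6 human BTK, 1 μM FAM peptide, pH 7.5, mobility-shift product/sum ratio, 12-point 4-parameter fit. Method C: radiometric filter binding, 8 nM His-tagged BTK, 0.2 mg/mL poly-Glu-Tyr.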

[1] = wild-type Btk, read-out: Btk-WT IC50
[2] = method is one of A, B or C, not stated which, read-out: IC50 values against Btk

T3 sequence (Q06187 whole entry): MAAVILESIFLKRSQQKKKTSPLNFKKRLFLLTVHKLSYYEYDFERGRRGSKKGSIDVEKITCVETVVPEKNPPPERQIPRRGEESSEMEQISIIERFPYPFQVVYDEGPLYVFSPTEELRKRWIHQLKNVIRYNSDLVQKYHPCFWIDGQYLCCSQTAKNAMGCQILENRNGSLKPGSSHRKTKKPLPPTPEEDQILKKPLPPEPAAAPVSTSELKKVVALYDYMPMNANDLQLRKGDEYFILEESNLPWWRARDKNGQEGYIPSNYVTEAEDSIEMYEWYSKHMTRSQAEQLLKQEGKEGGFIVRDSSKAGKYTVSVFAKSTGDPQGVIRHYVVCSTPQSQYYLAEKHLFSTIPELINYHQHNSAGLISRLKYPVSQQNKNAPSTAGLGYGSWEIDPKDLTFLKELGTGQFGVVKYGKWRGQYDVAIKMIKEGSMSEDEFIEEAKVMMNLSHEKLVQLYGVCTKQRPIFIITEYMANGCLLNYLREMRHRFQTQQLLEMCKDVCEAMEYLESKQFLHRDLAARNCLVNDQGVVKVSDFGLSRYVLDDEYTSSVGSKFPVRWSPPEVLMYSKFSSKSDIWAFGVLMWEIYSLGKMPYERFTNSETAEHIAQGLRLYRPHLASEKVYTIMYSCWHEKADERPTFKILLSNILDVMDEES

| Compound | IC50 (TEC) [nM] | TEC/Btk (TEC) | IC50 (panel of kinases) [nM] | IC50 (Btk; [1]) [nM] | IC50 (Btk; [2]) [nM] |
| --- | --- | --- | --- | --- | --- |
| CC(C)(C)c1cc(C(=O)NCc2ccc(-c3ccnc4[nH]nc(N[C@@H]5CCNC5)c34)cc2F)no1 [Example 63, 5-tert-butyl-N-{[2-fluoro-4-(3-{[(3R)-pyrrolidin-3-yl]amino}-1H-pyrazolo[3,4-b]pyridin-4-yl)phenyl]methyl}-1,2-oxazole-3-carboxamide] | 7860 | 771 | > 10000 | 10.2 | – |
| CC(C)(C)n1ccc(C(=O)NCc2ccc(-c3ccnc4[nH]nc(N[C@@H]5CCNC5)c34)cc2F)n1 [Example 64, 1-tert-butyl-N-{[2-fluoro-4-(3-{[(3R)-pyrrolidin-3-yl]amino}-1H-pyrazolo[3,4-b]pyridin-4-yl)phenyl]methyl}-1H-pyrazole-3-carboxamide] | > 10000 | >100 | > 10000 | 167 | – |
| C=CC(=O)N1CC[C@@H](Nc2n[nH]c3nccc(-c4ccc(CNC(=O)c5cc(C(C)(C)C)on5)c(F)c4)c23)C1 [Example 65, 5-tert-butyl-N-{[2-fluoro-4-(3-{[(3R)-1-(prop-2-enoyl)pyrrolidin-3-yl]amino}-1H-pyrazolo [3,4-b]pyridin-4-yl)phenyl]methyl}-1,2-oxazole-3-carboxamide] | 42 | 529 | 78 | 0.0792 | < 10 |
| C=CC(=O)N1CC[C@@H](Nc2n[nH]c3nccc(-c4ccc(CNC(=O)c5ccn(C(C)(C)C)n5)c(F)c4)c23)C1 [Example 66, 1-tert-butyl-N-{[2-fluoro-4-(3-{[(3R)-1-(prop-2-enoyl)pyrrolidin-3-yl]amino}-1H-pyrazolo[3,4-b]pyridin-4-yl)phenyl]methyl}-1H-pyrazole-3-carboxamide] | 403 | 959 | 219 | 0.42 | < 10 |
| C[C@H]1CC[C@@H](Nc2n[nH]c3nccc(-c4ccc(CNC(=O)c5noc(C(C)(C)C)n5)c(F)c4)c23)CN1C(=O)N(C)C [Example 67, (2S,5R)-5-{[4-(4-{[(5-tert-butyl-1,2,4-oxadiazol-3-yl)formamido]methyl}-3-fluorophenyl)-1H-pyrazolo[3,4-b]pyridin-3-yl]amino}-N,N,2-trimethylpiperidine-1-carboxamide] | 121 | 337 | 137 | 0.359 | < 10 |
| C[C@H]1CC[C@@H](Nc2n[nH]c3nccc(-c4ccc(CNC(=O)c5noc(C(C)(C)C)n5)c(F)c4)c23)CN1C=O [Example 68, 5-tert-butyl-N-{[2-fluoro-4-(3-{[(3R,6S)-1-formyl-6-methylpiperidin-3-yl]amino}-1H-pyrazolo[3,4-b]pyridin-4-yl)phenyl]methyl}-1,2,4-oxadiazole-3-carboxamide] | 258 | 429 | 541 | 0.601 | < 10 |
| CC(C)(C)c1nc(C(=O)NCc2ccc(-c3ccnc4[nH]nc(N[C@@H]5CCCNC5)c34)cc2F)no1 [Example 69, 5-tert-butyl-N-{[2-fluoro-4-(3-{[(3R)-piperidin-3-yl]amino}-1H-pyrazolo[3,4-b]pyridin-4-yl)phenyl]methyl}-1,2,4-oxadiazole-3-carboxamide] | 4510 | 434 | 6970 | 10.4 | – |
| CC(C)(C)c1nc(C(=O)NC2(c3ccc(-c4ccnc5[nH]nc(N[C@@H]6CCCNC6)c45)cc3)CC2)no1 [Example 70, 5-tert-butyl-N-{1-[4-(3-{[(3R)-piperidin-3-yl]amino}-1H-pyrazolo[3,4-b]pyridin-4-yl)phenyl]cyclopropyl}-1,2,4-oxaidazole-3-carboxamide] | > 10000 | >100 | > 10000 | 180 | – |
| CC(C)(C)c1noc(C(=O)NC2(c3ccc(-c4ccnc5[nH]nc(N[C@@H]6CCNC6)c45)cc3)CC2)n1 [Example 71, 3-tert-butyl-N-{1-[4-(3-{[(3R)-pyrrolidin-3-yl]amino}-1H-pyrazolo[3,4-b]pyridin-4-yl)phenyl]cyclopropyl}-1,2,4-oxadiazole-5-carboxamide] | > 10000 | >100 | > 10000 | 42.2 | – |
| C[C@H](NC(=O)c1noc(C(C)(C)C)n1)c1ccc(-c2ccnc3[nH]nc(N[C@@H]4CCNC4)c23)cc1 [Example 72, 5-tert-butyl-N-[(1S)-1-[4-(3-{[(3R)-pyrrolidin-3-yl]amino}-1H-pyrazolo[3,4-b]pyridin-4-yl)phenyl]ethyl]-1,2,4-oxadiazole-3-carboxamide] | > 10000 | >100 | > 10000 | > 10000 | – |
| C[C@@H](NC(=O)c1noc(C(C)(C)C)n1)c1ccc(-c2ccnc3[nH]nc(N[C@@H]4CCNC4)c23)cc1 [Example 73, 5-tert-butyl-N-[(1R)-1-[4-(3-{[(3R)-pyrrolidin-3-yl]amino}-1H-pyrazolo[3,4-b]pyridin-4-yl)phenyl]ethyl]-1,2,4-oxadiazole-3-carboxamide] | > 10000 | >100 | > 10000 | 37.9 | – |
| CC(C)(C)c1nc(C(=O)NCc2cc(F)cc(-c3ccnc4[nH]nc(N[C@@H]5CCNC5)c34)c2)no1 [Example 74, 5-tert-butyl-N-{[3-fluoro-5-(3-{[(3R)-pyrrolidin-3-yl]amino}-1H-pyrazolo[3,4-b]pyridin-4-yl)phenyl]methyl}-1,2,4-oxadiazole-3-carboxamide] | > 10000 | – | > 10000 | > 10000 | – |
| CC(C)(C)c1ccc(C(=O)NCc2cc(F)cc(-c3ccnc4[nH]nc(N[C@@H]5CCNC5)c34)c2)cc1 [Example 75, 4-tert-butyl-N-{[3-fluoro-5-(3-{[(3R)-pyrrolidin-3-yl]amino}-1H-pyrazolo[3,4-b]pyridin-4-yl)phenyl]methyl}benzamide] | > 10000 | – | > 10000 | > 10000 | – |
| CC(C)(C)n1cc(C(=O)NCc2ccc(-c3ccnc4[nH]nc(N[C@@H]5CCNC5)c34)cc2F)cn1 [Example 76, 1-tert-butyl-N-{[2-fluoro-4-(3-{[(3R)-pyrrolidin-3-yl]amino}-1H-pyrazolo[3,4-b]pyridin-4-yl)phenyl]methyl}-1H-pyrazole-4-carboxamide] | 8720 | 171 | 8360 | 51.1 | – |
| CC(C)(C)c1nnc(C(=O)NCc2ccc(-c3ccnc4[nH]nc(N[C@@H]5CCNC5)c34)cc2F)o1 [Example 77, 5-tert-butyl-N-{[2-fluoro-4-(3-{[(3R)-pyrrolidin-3-yl]amino}-1H-pyrazolo[3,4-b]pyridin-4-yl)phenyl]methyl}-1,3,4-oxadiazole-2-carboxamide] | > 10000 | >100 | > 10000 | 159 | – |
| CC(C)(C)c1n[nH]c(C(=O)NCc2ccc(-c3ccnc4[nH]nc(N[C@@H]5CCNC5)c34)cc2F)n1 [Example 78, 3-tert-butyl-N-{[2-fluoro-4-(3-{[(3R)-pyrrolidin-3-yl]amino}-1H-pyrazolo[3,4-b]pyridin-4-yl)phenyl]methyl}-1H-1,2,4-triazole-5-carboxamide] | > 10000 | – | > 10000 | > 10000 | – |
